From patent US20100298141A1, “SUBSTITUTED PYRIDINE N-OXIDE HERBICIDES” (E. I. DU PONT DE NEMOURS AND COMPANY, priority 2007, published 2010)

What was measured:
[1] = tested on: common ragweed; test: Test C pre-/postemergence test; format: in vivo, Ambrosia elation
In short: (§1)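 Seeds were planted and treated preemergence with test chemical in a non-phytotoxic solvent mixture containing surfactant. Postemergence applications of the same formulation went onto plants 2 to 18 cm tall (1- to 4-leaf stage). A dash marks no test result.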

[2] = tested on: giant foxtail; test: Test A pre-/postemergence greenhouse test; format: in vivo, Setaria faberi; conditions: for Foxtail, Giant plant response rating: 0 to 100 scale
In short: (§2)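 Planting was into mixed loam soil and sand; preemergence treatment followed as a directed soil spray. Concurrently, emerged plants (one- to two-leaf, 2–10 cm) received postemergence applications of identically formulated compound (non-phytotoxic solvent, surfactant). After approximately ten days under greenhouse conditions, injury was judged by eye against untreated plants.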

[3] = tested on: redroot pigweed; test: Test A pre-/postemergence greenhouse test; format: in vivo, Amaranthus retroflexus; conditions: for Pigweed plant response rating: 0 to 100 scale
In short: as §2

[4] = tested on: bermudagrass; test: Test C pre-/postemergence test; format: in vivo, Cynodon dactylon
In short: as §1

[5] = tested on: lambsquarters; test: Test C pre-/postemergence test; format: in vivo, Chenopodium album
In short: as §1

[6] = tested on: wild oat; test: Test C pre-/postemergence test; format: in vivo, Avena fatua
In short: as §1

[7] = tested on: corn; test: Test A pre-/postemergence greenhouse test; format: in vivo, Zea mays; conditions: for Corn plant response rating: 0 to 100 scale
In short: as §2

[8] = tested on: velvetleaf; test: Test A pre-/postemergence greenhouse test; format: in vivo, Abutilon theophrasti; conditions: for Velvetleaf plant response rating: 0 to 100 scale
In short: as §2

[9] = tested on: giant foxtail; test: Test C pre-/postemergence test; format: in vivo, Setaria faberii
In short: as §1

[10] = tested on: rice; test: Test C flooded paddy test; format: in vivo, Oryza sativa; conditions: Flood
In short: (§3)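 Under a constant 3 cm flood, test compounds went directly into the paddy water. Following 13 to 15 days of greenhouse growth, treated species and controls were compared by eye.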

[11] = tested on: eastern black nightshade; test: Test C pre-/postemergence test; format: in vivo, Solanum ptycanthum
Excerpt: Seeds of plant species selected from blackgrass (Alopecurus myosuroides), downy brome (Bromus tectorum), green foxtail (Setaria viridis), Italian ryegrass (Lolium multiflorum), wheat (Triticum aestivum), wild oat (Avena fatua), catchweed bedstraw (Galium aparine), Russian thistle (Salsola kali), […] (Cynodon dactylon), Surinam grass (Brachiaria decumbens), cocklebur (Xanthium strumarium), corn (Zea mays), crabgrass (Digitaria sanguinalis), woolly cupgrass (Eriochloa villosa), giant foxtail (Setaria faberii), Goosegrass (Eleusin indica), johnsongrass (Sorghum halepense), kochia (Kochia scoparia), lambsquarters (Chenopodium album), morningglory (Ipomoea coccinea), eastern black nightshade (Solanum ptycanthum), yellow nutsedge (Cyperus esculentus), pigweed (Amaranthus retroflexus), common ragweed (Ambrosia elation), soybean (Glycine max), common (oilseed) sunflower (Helianthus annuus), and velvetleaf (Abutilon theophrasti) were planted and treated preemergence with test chemicals formulated in a non-phytotoxic solvent mixture which included a surfactant. At the same time, plants selected from these crop and weed species and also winter barley (Hordeum vulgare), canarygrass (Phalaris minor), and chickweed (Stellaria media) were treated with postemergence applications of some of the test chemicals formulated in the same manner. Plants ranged in height from 2 to 18 cm (1- to 4-leaf stage) for postemergence treatments. […] At time of treatment, test pots were flooded to 3 cm above the soil surface, treated by application of test compounds directly to the paddy water, and then maintained at that water depth for the duration of the test. […] A dash (-) response means no test result.

[12] = tested on: wheat; test: Test A pre-/postemergence greenhouse test; format: in vivo, Triticum aestivum; conditions: for Wheat plant response rating: 0 to 100 scale
In short: as §2

[13] = tested on: Surinam grass; test: Test C pre-/postemergence test; format: in vivo, Brachiaria decumbens; conditions: for Surinam Grass plant response rating: preemergence, scale 0 (no effect) to 100 (complete control)
In short: as §1

[14] = tested on: Goosegrass; test: Test C pre-/postemergence test; format: in vivo, Eleusin indica
In short: as §1

[15] = tested on: johnsongrass; test: Test C pre-/postemergence test; format: in vivo, Sorghum halepense
In short: as §1

[16] = tested on: barnyardgrass; test: Test C flooded paddy test; format: in vivo, Echinochloa crus-galli; conditions: Flood
In short: as §3

[17] = 31 g ai/ha, Preemergence, scale 0 to 100
[18] = 62 g ai/ha, preemergence, scale 0 (no effect) to 100 (complete control)
[19] = preemergence, 125 g ai/ha, scale 0 (no effect) to 100 (complete control)
[20] = Postemergence, 125 g ai/ha, 0 is no effect, 100 is complete control
[21] = Postemergence, 500 g ai/ha, 0 is no effect, 100 is complete control
[22] = Preemergence, 125 g ai/ha, 0 no effect, 100 complete control
[23] = Preemergence, 500 g ai/ha, 0 to 100 scale where 0 is no effect and 100 is complete control
[24] = 31 g ai/ha, scale 0 to 100 (0 no effect, 100 complete control)
[25] = 62 g ai/ha, scale 0 to 100, 0 no effect, 100 complete control, 13 to 15 days
[26] = 125 g ai/ha, scale 0 to 100, 0 no effect, 100 complete control, 13 to 15 days
[27] = 250 g ai/ha, scale 0 to 100 (0 no effect, 100 complete control)

Cn1nc(C(F)(F)F)c(CS(=O)(=O)c2cccc[n+]2[O-])c1OC(F)F [Compound 4]
Ragweed plant response rating [1, 17]: 70 | Ragweed plant response rating [1, 18]: 100 | Plant response rating (0 to 100), Ragweed ([1]; Preemergence, 250 g ai/ha): 100 | Ragweed plant response rating [1, 19]: 100 | Foxtail, Giant plant response rating [2, 20]: 80 | Foxtail, Giant plant response rating [2, 21]: 90 | Foxtail, Giant plant response rating [2, 22]: 100 | Plant response rating, Foxtail, Giant [2, 23]: 100 | Pigweed plant response rating [3, 20]: 70 | Pigweed plant response rating [3, 21]: 80 | Pigweed plant response rating [3, 22]: 100 | Plant response rating, Pigweed [3, 23]: 100 | Bermudagrass plant response rating [4, 17]: 100 | Bermudagrass plant response rating [4, 18]: 100 | Plant response rating (0 to 100), Bermudagrass ([4]; Preemergence, 250 g ai/ha): 100 | Bermudagrass plant response rating [4, 19]: 100 | Lambsquarters plant response rating [5, 17]: 0 | Lambsquarters plant response rating [5, 18]: 50 | Plant response rating (0 to 100), Lambsquarters ([5]; Preemergence, 250 g ai/ha): 100 | Lambsquarters plant response rating [5, 19]: 80 | Oat, Wild plant response rating [6, 17]: 10 | Oat, Wild plant response rating [6, 18]: 50 | Plant response rating (0 to 100), Oat, Wild ([6]; Preemergence, 250 g ai/ha): 70 | Oat, Wild plant response rating [6, 19]: 65 | Corn plant response rating [7, 20]: 30 | Corn plant response rating [7, 21]: 60 | Corn plant response rating [7, 22]: 20 | Plant response rating, Corn [7, 23]: 80 | Velvetleaf plant response rating [8, 20]: 50 | Velvetleaf plant response rating [8, 21]: 80 | Velvetleaf plant response rating [8, 22]: 50 | Plant response rating, Velvetleaf [8, 23]: 90 | Foxtail, Giant plant response rating [9, 17]: 90 | Foxtail, Giant plant response rating [9, 18]: 100 | Plant response rating (0 to 100), Foxtail, Giant ([9]; Preemergence, 250 g ai/ha): 100 | Foxtail, Giant plant response rating [9, 19]: 100 | Plant response rating, Rice [10, 24]: 10 | Plant response rating, Rice [10, 25]: 30 | Plant response rating, Rice [10, 26]: 70 | Plant response rating, Rice [10, 27]: 80 | Nightshade plant response rating [11, 17]: 90 | Nightshade plant response rating [11, 18]: 100 | Plant response rating (0 to 100), Nightshade ([11]; Preemergence, 250 g ai/ha): 100 | Nightshade plant response rating [11, 19]: 100 | Wheat plant response rating [12, 20]: 60 | Wheat plant response rating [12, 21]: 60 | Wheat plant response rating [12, 22]: 50 | Plant response rating, Wheat [12, 23]: 80 | Surinam Grass plant response rating ([13]; 62 g ai/ha): 100 | Plant response rating (0 to 100), Surinam Grass ([13]; Preemergence, 250 g ai/ha): 100 | Surinam Grass plant response rating ([13]; 125 g ai/ha): 100 | Goosegrass plant response rating [14, 17]: 100 | Goosegrass plant response rating [14, 18]: 100 | Plant response rating (0 to 100), Goosegrass ([14]; Preemergence, 250 g ai/ha): 100 | Goosegrass plant response rating [14, 19]: 100 | Johnsongrass plant response rating [15, 17]: 95 | Johnsongrass plant response rating [15, 18]: 95 | Plant response rating (0 to 100), Johnsongrass ([15]; Preemergence, 250 g ai/ha): 100 | Johnsongrass plant response rating [15, 19]: 100 | Plant response rating, Barnyardgrass [16, 24]: 0 | Plant response rating, Barnyardgrass [16, 25]: 35 | Plant response rating, Barnyardgrass [16, 26]: 85 | Plant response rating, Barnyardgrass [16, 27]: 90
